Data on 17 compounds can be found in US20250019387A1 (Frontier Medicines Corporation, priority 0001, published 2025).

Bounds are passed on as bounds.

Chain of KRAS G12C and cRAF (Ras-binding domain) interaction (P01116 other isoform, or with tags, fused parts or gaps G12C/C51S/C80L/C118S): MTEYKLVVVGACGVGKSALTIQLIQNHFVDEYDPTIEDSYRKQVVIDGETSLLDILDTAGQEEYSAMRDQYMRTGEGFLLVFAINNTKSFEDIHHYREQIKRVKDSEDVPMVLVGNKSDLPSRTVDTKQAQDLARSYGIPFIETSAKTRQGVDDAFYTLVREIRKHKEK

This test concerns the target KRAS G12C and cRAF (Ras-binding domain) interaction (Homo sapiens (Human), UniProt P01116, C118S/C51S/C80L/G12C). Kind of test: Inhibition of KRAS G12C and cRAF binding (AlphaScreen). Particulars: GMPPNP-loaded KRAS G12C, 19-20 hours incubation with compound; read-out: IC50 (Inhibition of KRAS G12C and cRAF Binding). In outline: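 Compounds (DMSO) preincubated 19-20 h at room temperature, then RBD with streptavidin donor and glutathione acceptor beads added in 25 mM Hepes pH 7.4, 150 mM NaCl, 5 mM MgCl2, 0.01% Triton X-100, 2% DMSO for 60-90 min. Emission 570 nm (excitation 680 nm); IC50 by 4-parameter fit. Counter-screen used biotin-AviTag-GST instead of RBD.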
In the case of `CCc1c(F)ccc2cccc(-c3ncc4c(N(C)[C@@H]5CCN(C(=O)/C=C/c6ccnc(C)n6)C5)nc(OC[C@@]56CCCN5C[C@H](F)C6)nc4c3F)c12` [Example 277, (E)-1-((R)-3-((7-(8-ethyl-7-fluoronaphthalen-1-yl)-8-fluoro-2-(((2R,7aS)-2-fluorohexahydro-1H-pyrrolizin-7a-yl)methoxy)pyrido[4,3-d]pyrimidin-4-yl)(methyl)amino)pyrrolidin-1-yl)-3-(2-methylpyrimidin-4-yl)prop-2-en-1-one], the concentration for half-maximal inhibition (IC50) was in the range of 100 to 500 nM.

For the compound `C#Cc1c(F)ccc2cccc(-c3ncc4c(N(C)[C@@H]5CCN(C(=O)/C=C/c6ccnc(C)n6)C5)nc(OC[C@@]56CCCN5C[C@H](F)C6)nc4c3F)c12` [Example 278, (E)-1-((R)-3-((7-(8-ethynyl-7-fluoronaphthalen-1-yl)-8-fluoro-2-(((2R,7aS)-2-fluorotetrahydro-1H-pyrrolizin-7a(5H)-yl)methoxy)pyrido[4,3-d]pyrimidin-4-yl)(methyl)amino)pyrrolidin-1-yl)-3-(2-methylpyrimidin-4-yl)prop-2-en-1-one], the IC50 is 10 to 100 nM. For `CCc1c(F)ccc2cccc(-c3ncc4c(N(C)[C@@H]5CCN(C(=O)/C=C/c6cc(C)nc(C)n6)C5)nc(OC[C@@]56CCCN5C[C@H](F)C6)nc4c3F)c12` [Example 279, (E)-3-(2,6-dimethylpyrimidin-4-yl)-1-((R)-3-((7-(8-ethyl-7-fluoronaphthalen-1-yl)-8-fluoro-2-(((2R,7aS)-2-fluorotetrahydro-1H-pyrrolizin-7a(5H)-yl)methoxy)pyrido[4,3-d]pyrimidin-4-yl)(methyl)amino)pyrrolidin-1-yl)prop-2-en-1-one], the IC50 fell in the range of 100 to 500 nM. `C#Cc1c(F)ccc2cccc(-c3ncc4c(N(C)CC5CN(C(=O)/C=C/c6cc(C)nc(C)n6)C5)nc(OC[C@@]56CCCN5C[C@H](F)C6)nc4c3F)c12` [Example 280, (E)-3-(2,6-dimethylpyrimidin-4-yl)-1-(3-(((7-(8-ethynyl-7-fluoronaphthalen-1-yl)-8-fluoro-2-(((2R,7aS)-2-fluorotetrahydro-1H-pyrrolizin-7a(5H)-yl)methoxy)pyrido[4,3-d]pyrimidin-4-yl)(methyl)amino)methyl)azetidin-1-yl)prop-2-en-1-one]: the IC50 was 10 to 100 nM. As to `Cc1c(F)ccc2c(-c3ncc4c(N(C)[C@@H]5CCN(C(=O)/C=C/CN(C)C)C5)nc(OC[C@@]56CCCN5C[C@H](F)C6)nc4c3F)cccc12` [Example 281, (E)-4-(dimethylamino)-1-((R)-3-((8-fluoro-7-(6-fluoro-5-methylnaphthalen-1-yl)-2-(((2R,7aS)-2-fluorotetrahydro-1H-pyrrolizin-7a(5H)-yl)methoxy)pyrido[4,3-d]pyrimidin-4-yl)(methyl)amino)pyrrolidin-1-yl)but-2-en-1-one], the IC50 lay in the range of 100 to 500 nM. For the compound `Cc1c(F)ccc2c(-c3ncc4c(N(C)[C@@H]5CCN(C(=O)/C=C/[C@H]6CCN6C)C5)nc(OC[C@@]56CCCN5C[C@H](F)C6)nc4c3F)cccc12` [Example 282, (E)-1-((R)-3-((8-fluoro-7-(6-fluoro-5-methylnaphthalen-1-yl)-2-(((2R,7aS)-2-fluorotetrahydro-1H-pyrrolizin-7a(5H)-yl)methoxy)pyrido[4,3-d]pyrimidin-4-yl)(methyl)amino)pyrrolidin-1-yl)-3-((R)-1-methylazetidin-2-yl)prop-2-en-1-one], the IC50 was in the range of 100 to 500 nM. As for `CCc1c(F)ccc2cccc(-c3ncc4c(N(C)CC5CN(C(=O)/C=C/c6cc(C)nc(C)n6)C5)nc(OC[C@@]56CCCN5C[C@H](F)C6)nc4c3F)c12` [Example 283, (E)-3-(2,6-dimethylpyrimidin-4-yl)-1-(3-(((7-(8-ethyl-7-fluoronaphthalen-1-yl)-8-fluoro-2-(((2R,7aS)-2-fluorotetrahydro-1H-pyrrolizin-7a(5H)-yl)methoxy)pyrido[4,3-d]pyrimidin-4-yl)(methyl)amino)methyl)azetidin-1-yl)prop-2-en-1-one], the IC50 fell in the range of 100 to 500 nM.

Turning to `C=CC(=O)N1C[C@@H](N(C)c2nc(OC[C@@]34CCCN3C[C@H](F)C4)nc3c(F)c(-c4cccc5cccc(Cl)c45)ncc23)C(F)(F)C1` [Example 285, 1-((R)-4-((7-(8-chloronaphthalen-1-yl)-8-fluoro-2-(((2R,7aS)-2-fluorotetrahydro-1H-pyrrolizin-7a(5H)-yl)methoxy)pyrido[4,3-d]pyrimidin-4-yl)(methyl)amino)-3,3-difluoropyrrolidin-1-yl)prop-2-en-1-one], the IC50 was above 500 nM.

As for `C#Cc1c(F)ccc2cccc(-c3ncc4c(N(C)[C@@H]5CCN(C(=O)/C=C/CN6CC[C@H](OC)C6)C5)nc(OC[C@@]56CCCN5C[C@H](F)C6)nc4c3F)c12` [Example 286, (E)-1-((R)-3-((7-(8-ethynyl-7-fluoronaphthalen-1-yl)-8-fluoro-2-(((2R,7aS)-2-fluorotetrahydro-1H-pyrrolizin-7a(5H)-yl)methoxy)pyrido[4,3-d]pyrimidin-4-yl)(methyl)amino)pyrrolidin-1-yl)-4-((S)-3-methoxypyrrolidin-1-yl)but-2-en-1-one], the IC50 is 10 to 100 nM. For the compound `C#Cc1c(F)ccc2cccc(-c3ncc4c(N(C)[C@@H]5CCN(C(=O)/C=C/CN6CC[C@@H](OC)C6)C5)nc(OC[C@@]56CCCN5C[C@H](F)C6)nc4c3F)c12` [Example 287, (E)-1-((R)-3-((7-(8-ethynyl-7-fluoronaphthalen-1-yl)-8-fluoro-2-(((2R,7aS)-2-fluorotetrahydro-1H-pyrrolizin-7a(5H)-yl)methoxy)pyrido[4,3-d]pyrimidin-4-yl)(methyl)amino)pyrrolidin-1-yl)-4-((R)-3-methoxypyrrolidin-1-yl)but-2-en-1-one], the IC50 lay in the range of 10 to 100 nM.

Turning to `C#Cc1c(F)ccc2cccc(-c3ncc4c(N(C)[C@@H]5CCN(C(=O)/C=C/CN6CC[C@H](F)C6)C5)nc(OC[C@@]56CCCN5C[C@H](F)C6)nc4c3F)c12` [Example 288, (E)-1-((R)-3-((7-(8-ethynyl-7-fluoronaphthalen-1-yl)-8-fluoro-2-(((2R,7aS)-2-fluorotetrahydro-1H-pyrrolizin-7a(5H)-yl)methoxy)pyrido[4,3-d]pyrimidin-4-yl)(methyl)amino)pyrrolidin-1-yl)-4-((S)-3-fluoropyrrolidin-1-yl)but-2-en-1-one], the IC50 was 10 to 100 nM. The same measure for `C#Cc1c(F)ccc2cccc(-c3ncc4c(N(C)[C@@H]5CCN(C(=O)/C=C/CN6CC[C@@H](F)C6)C5)nc(OC[C@@]56CCCN5C[C@H](F)C6)nc4c3F)c12` [Example 289, (E)-1-((R)-3-((7-(8-ethynyl-7-fluoronaphthalen-1-yl)-8-fluoro-2-(((2R,7aS)-2-fluorotetrahydro-1H-pyrrolizin-7a(5H)-yl)methoxy)pyrido[4,3-d]pyrimidin-4-yl)(methyl)amino)pyrrolidin-1-yl)-4-((R)-3-fluoropyrrolidin-1-yl)but-2-en-1-one]: 10 to 100 nM; for `C#Cc1c(F)ccc2cccc(-c3ncc4c(N(C)[C@@H]5CCN(C(=O)/C=C/CN6C[C@H]7C[C@@H]6CO7)C5)nc(OC[C@@]56CCCN5C[C@H](F)C6)nc4c3F)c12` [Example 290, (E)-4-((1R,4R)-2-oxa-5-azabicyclo[2.2.1]heptan-5-yl)-1-((R)-3-((7-(8-ethynyl-7-fluoronaphthalen-1-yl)-8-fluoro-2-(((2R,7aS)-2-fluorotetrahydro-1H-pyrrolizin-7a(5H)-yl)methoxy)pyrido[4,3-d]pyrimidin-4-yl)(methyl)amino)pyrrolidin-1-yl)but-2-en-1-one]: below 10 nM.

Take `C#Cc1c(F)ccc2cccc(-c3ncc4c(N(C)[C@@H]5CCN(C(=O)/C=C/CN6C[C@@H]7C[C@H]6CO7)C5)nc(OC[C@@]56CCCN5C[C@H](F)C6)nc4c3F)c12` [Example 291, (E)-4-((1S,4S)-2-oxa-5-azabicyclo[2.2.1]heptan-5-yl)-1-((R)-3-((7-(8-ethynyl-7-fluoronaphthalen-1-yl)-8-fluoro-2-(((2R,7aS)-2-fluorotetrahydro-1H-pyrrolizin-7a(5H)-yl)methoxy)pyrido[4,3-d]pyrimidin-4-yl)(methyl)amino)pyrrolidin-1-yl)but-2-en-1-one]: the IC50 was below 10 nM. Turning to `C#Cc1c(F)ccc2cccc(-c3ncc4c(N(C)[C@@H]5CCN(C(=O)/C=C/CN6[C@@H]7CC[C@H]6COC7)C5)nc(OC[C@@]56CCCN5C[C@H](F)C6)nc4c3F)c12` [Example 292, (E)-4-((1R,5S)-3-oxa-8-azabicyclo[3.2.1]octan-8-yl)-1-((R)-3-((7-(8-ethynyl-7-fluoronaphthalen-1-yl)-8-fluoro-2-(((2R,7aS)-2-fluorotetrahydro-1H-pyrrolizin-7a(5H)-yl)methoxy)pyrido[4,3-d]pyrimidin-4-yl)(methyl)amino)pyrrolidin-1-yl)but-2-en-1-one], the IC50 is below 10 nM. Consider `C#Cc1c(F)ccc2cccc(-c3ncc4c(N(C)[C@@H]5CCN(C(=O)/C=C/CN6C7COCC6C7)C5)nc(OC[C@@]56CCCN5C[C@H](F)C6)nc4c3F)c12` [Example 293, (E)-4-(3-oxa-6-azabicyclo[3.1.1]heptan-6-yl)-1-((R)-3-((7-(8-ethynyl-7-fluoronaphthalen-1-yl)-8-fluoro-2-(((2R,7aS)-2-fluorotetrahydro-1H-pyrrolizin-7a(5H)-yl)methoxy)pyrido[4,3-d]pyrimidin-4-yl)(methyl)amino)pyrrolidin-1-yl)but-2-en-1-one], for which the IC50 was below 10 nM.

For the compound `Cc1nc(C)c(F)c(/C=C/C(=O)N2CC[C@@H](N(C)c3nc(OC[C@@]45CCCN4C[C@H](F)C5)nc4c(F)c(-c5cccc6ccc(F)c(F)c56)ncc34)C2)n1` [Example 294, (E)-1-((R)-3-((7-(7,8-difluoronaphthalen-1-yl)-8-fluoro-2-(((2R,7aS)-2-fluorotetrahydro-1H-pyrrolizin-7a(5H)-yl)methoxy)pyrido[4,3-d]pyrimidin-4-yl)(methyl)amino)pyrrolidin-1-yl)-3-(5-fluoro-2,6-dimethylpyrimidin-4-yl)prop-2-en-1-one], the IC50 lay within 100 to 500 nM.

Broadly, the IC50 is the point on the concentration scale where inhibition reaches its midpoint.
